# According to the kinase profiling compilation of Christmann-Franck et al. (2016):
# What was measured:
# [1] = target: AAK1 (human) (UniProt Q2M2I8); test: KINOMEscan competition binding; conditions: compound 10.0 µM
# [2] = target: ACVR2A (human) (UniProt P27037); test: KINOMEscan competition binding; conditions: compound 10.0 µM
# [3] = target: ACVR2B (human) (UniProt Q13705); test: KINOMEscan competition binding; conditions: compound 10.0 µM
# [4] = target: BMP2K (human) (UniProt Q9NSY1); test: KINOMEscan competition binding; conditions: compound 10.0 µM
# [5] = target: CAMKK1 (human) (UniProt Q8N5S9); test: KINOMEscan competition binding; conditions: compound 10.0 µM
# [6] = target: CDK7 (human) (UniProt P50613); test: KINOMEscan competition binding; conditions: compound 10.0 µM
# [7] = target: CLK1 (human) (UniProt P49759); test: KINOMEscan competition binding; conditions: compound 10.0 µM
# [8] = target: CLK2 (human) (UniProt P49760); test: KINOMEscan competition binding; conditions: compound 10.0 µM
# [9] = target: CLK4 (human) (UniProt Q9HAZ1); test: KINOMEscan competition binding; conditions: compound 10.0 µM
# [10] = target: CSNK2A2 (human) (UniProt P19784); test: KINOMEscan competition binding; conditions: compound 10.0 µM
# [11] = target: DAPK1 (human) (UniProt P53355); test: KINOMEscan competition binding; conditions: compound 10.0 µM
# [12] = target: DAPK2 (human) (UniProt Q9UIK4); test: KINOMEscan competition binding; conditions: compound 10.0 µM
# [13] = tested on: EIF2AK4 KD2 (human), Q9P2K8 [S808G]; test: KINOMEscan competition binding; conditions: compound 10.0 µM
# [14] = tested on: FLT3 (human), P36888 [D835H]; test: KINOMEscan competition binding; conditions: compound 10.0 µM
# [15] = tested on: FLT3 (human), P36888 [D835Y]; test: KINOMEscan competition binding; conditions: compound 10.0 µM
# [16] = tested on: FLT3 (human), P36888 [ITD]; test: KINOMEscan competition binding; conditions: compound 10.0 µM
# [17] = tested on: FLT3 (human), P36888 [N841I]; test: KINOMEscan competition binding; conditions: compound 10.0 µM
# [18] = target: GAK (human) (UniProt O14976); test: KINOMEscan competition binding; conditions: for kinase still bound, per cent of control: compound 10.0 µM
# [19] = target: GSK3A (human) (UniProt P49840); test: KINOMEscan competition binding; conditions: compound 10.0 µM
# [20] = target: HIPK1 (human) (UniProt Q86Z02); test: KINOMEscan competition binding; conditions: compound 10.0 µM
# [21] = target: IRAK3 (human) (UniProt Q9Y616); test: KINOMEscan competition binding; conditions: compound 10.0 µM
# [22] = target: JAK1 JH2 pseudokinase (human) (UniProt P23458); test: KINOMEscan competition binding; conditions: compound 10.0 µM
# [23] = target: MAP2K4 (human) (UniProt P45985); test: KINOMEscan competition binding; conditions: compound 10.0 µM
# [24] = target: MAP3K7 (human) (UniProt O43318); test: KINOMEscan competition binding; conditions: compound 10.0 µM
# [25] = target: MAP4K2 (human) (UniProt Q12851); test: KINOMEscan competition binding; conditions: compound 10.0 µM
# [26] = target: MINK1 (human) (UniProt Q8N4C8); test: KINOMEscan competition binding; conditions: compound 10.0 µM
# [27] = target: MYLK (human) (UniProt Q15746); test: KINOMEscan competition binding; conditions: compound 10.0 µM
# [28] = target: MYLK4 (human) (UniProt Q86YV6); test: KINOMEscan competition binding; conditions: compound 10.0 µM
# [29] = target: PIM1 (human) (UniProt P11309); test: KINOMEscan competition binding; conditions: compound 10.0 µM
# [30] = target: PIM2 (human) (UniProt Q9P1W9); test: KINOMEscan competition binding; conditions: compound 10.0 µM
# [31] = target: PIM3 (human) (UniProt Q86V86); test: KINOMEscan competition binding; conditions: compound 10.0 µM
# [32] = target: PIP4K2B (human) (UniProt P78356); test: KINOMEscan competition binding; conditions: compound 10.0 µM
# [33] = target: PIP5K1A (human) (UniProt Q99755); test: KINOMEscan competition binding; conditions: compound 10.0 µM
# [34] = target: PLK3 (human) (UniProt Q9H4B4); test: KINOMEscan competition binding; conditions: compound 10.0 µM
# [35] = tested on: RET (human), P07949 [V804M]; test: KINOMEscan competition binding; conditions: compound 10.0 µM
# [36] = target: RIOK1 (human) (UniProt Q9BRS2); test: KINOMEscan competition binding; conditions: compound 10.0 µM
# [37] = target: RIOK2 (human) (UniProt Q9BVS4); test: KINOMEscan competition binding; conditions: compound 10.0 µM
# [38] = target: RIPK2 (human) (UniProt O43353); test: KINOMEscan competition binding; conditions: compound 10.0 µM
# [39] = target: SRPK3 (human) (UniProt Q9UPE1); test: KINOMEscan competition binding; conditions: compound 10.0 µM
# [40] = target: STK17A (human) (UniProt Q9UEE5); test: KINOMEscan competition binding; conditions: compound 10.0 µM
# [41] = target: STK17B (human) (UniProt O94768); test: KINOMEscan competition binding; conditions: compound 10.0 µM
# [42] = target: TAOK1 (human) (UniProt Q7L7X3); test: KINOMEscan competition binding; conditions: compound 10.0 µM
# [43] = target: TGFBR2 (human) (UniProt P37173); test: KINOMEscan competition binding; conditions: compound 10.0 µM
# [44] = target: TTK (human) (UniProt P33981); test: KINOMEscan competition binding; conditions: compound 10.0 µM
# [45] = target: TYK2 JH2 pseudokinase (human) (UniProt P29597); test: KINOMEscan competition binding; conditions: compound 10.0 µM
# [46] = target: PIM1 (human) (UniProt P11309); test: SelectScreen, TR FRET
# [47] = target: PIM2 (human) (UniProt Q9P1W9); test: SelectScreen, TR FRET
# [48] = tested on: ABL1 (human), P00519 [F317I]; test: KINOMEscan competition binding; conditions: compound 10.0 µM
# [49] = tested on: ABL1 (human), P00519 [F317L]; test: KINOMEscan competition binding; conditions: compound 10.0 µM
# [50] = target: CSF1R (human) (UniProt P07333); test: KINOMEscan competition binding
# [51] = target: DCLK1 (human) (UniProt O15075); test: KINOMEscan competition binding
# [52] = target: DCLK2 (human) (UniProt Q8N568); test: KINOMEscan competition binding
# [53] = target: FGFR4 (human) (UniProt P22455); test: KINOMEscan competition binding; conditions: compound 10.0 µM
# [54] = target: FRK (human) (UniProt P42685); test: KINOMEscan competition binding
# [55] = target: KIT (human) (UniProt P10721); test: KINOMEscan competition binding; conditions: compound 10.0 µM
# [56] = tested on: KIT (human), P10721 [V559D]; test: KINOMEscan competition binding; conditions: compound 10.0 µM
# [57] = target: MAPK7 (human) (UniProt Q13164); test: KINOMEscan competition binding
# [58] = target: MKNK2 (human) (UniProt Q9HBH9); test: KINOMEscan competition binding; conditions: compound 10.0 µM
# [59] = target: NUAK1 (human) (UniProt O60285); test: KINOMEscan competition binding; conditions: compound 10.0 µM
# [60] = target: PDGFRB (human) (UniProt P09619); test: KINOMEscan competition binding; conditions: compound 10.0 µM
# [61] = target: PLK4 (human) (UniProt O00444); test: KINOMEscan competition binding; conditions: compound 10.0 µM
# [62] = target: PRKD1 (human) (UniProt Q15139); test: KINOMEscan competition binding; conditions: compound 10.0 µM
# [63] = target: PRKD2 (human) (UniProt Q9BZL6); test: KINOMEscan competition binding; conditions: compound 10.0 µM
# [64] = target: PRKD3 (human) (UniProt O94806); test: KINOMEscan competition binding; conditions: compound 10.0 µM
# [65] = target: PTK6 (human) (UniProt Q13882); test: KINOMEscan competition binding
# [66] = target: ROS1 (human) (UniProt P08922); test: KINOMEscan competition binding; conditions: compound 10.0 µM
# [67] = target: RPS6KA1 KD2 (human) (UniProt Q15418); test: KINOMEscan competition binding; conditions: compound 10.0 µM
# [68] = target: RPS6KA6 KD2 (human) (UniProt Q9UK32); test: KINOMEscan competition binding; conditions: compound 10.0 µM
# [69] = target: SGK110 (human) (UniProt P0C264); test: KINOMEscan competition binding; conditions: compound 10.0 µM
# [70] = target: SRMS (human) (UniProt Q9H3Y6); test: KINOMEscan competition binding; conditions: compound 10.0 µM
# [71] = target: TNK1 (human) (UniProt Q13470); test: KINOMEscan competition binding
# [72] = target: TNK2 (human) (UniProt Q07912); test: KINOMEscan competition binding; conditions: compound 10.0 µM
# Sequence of GAK (human) (O14976 whole entry, looked up): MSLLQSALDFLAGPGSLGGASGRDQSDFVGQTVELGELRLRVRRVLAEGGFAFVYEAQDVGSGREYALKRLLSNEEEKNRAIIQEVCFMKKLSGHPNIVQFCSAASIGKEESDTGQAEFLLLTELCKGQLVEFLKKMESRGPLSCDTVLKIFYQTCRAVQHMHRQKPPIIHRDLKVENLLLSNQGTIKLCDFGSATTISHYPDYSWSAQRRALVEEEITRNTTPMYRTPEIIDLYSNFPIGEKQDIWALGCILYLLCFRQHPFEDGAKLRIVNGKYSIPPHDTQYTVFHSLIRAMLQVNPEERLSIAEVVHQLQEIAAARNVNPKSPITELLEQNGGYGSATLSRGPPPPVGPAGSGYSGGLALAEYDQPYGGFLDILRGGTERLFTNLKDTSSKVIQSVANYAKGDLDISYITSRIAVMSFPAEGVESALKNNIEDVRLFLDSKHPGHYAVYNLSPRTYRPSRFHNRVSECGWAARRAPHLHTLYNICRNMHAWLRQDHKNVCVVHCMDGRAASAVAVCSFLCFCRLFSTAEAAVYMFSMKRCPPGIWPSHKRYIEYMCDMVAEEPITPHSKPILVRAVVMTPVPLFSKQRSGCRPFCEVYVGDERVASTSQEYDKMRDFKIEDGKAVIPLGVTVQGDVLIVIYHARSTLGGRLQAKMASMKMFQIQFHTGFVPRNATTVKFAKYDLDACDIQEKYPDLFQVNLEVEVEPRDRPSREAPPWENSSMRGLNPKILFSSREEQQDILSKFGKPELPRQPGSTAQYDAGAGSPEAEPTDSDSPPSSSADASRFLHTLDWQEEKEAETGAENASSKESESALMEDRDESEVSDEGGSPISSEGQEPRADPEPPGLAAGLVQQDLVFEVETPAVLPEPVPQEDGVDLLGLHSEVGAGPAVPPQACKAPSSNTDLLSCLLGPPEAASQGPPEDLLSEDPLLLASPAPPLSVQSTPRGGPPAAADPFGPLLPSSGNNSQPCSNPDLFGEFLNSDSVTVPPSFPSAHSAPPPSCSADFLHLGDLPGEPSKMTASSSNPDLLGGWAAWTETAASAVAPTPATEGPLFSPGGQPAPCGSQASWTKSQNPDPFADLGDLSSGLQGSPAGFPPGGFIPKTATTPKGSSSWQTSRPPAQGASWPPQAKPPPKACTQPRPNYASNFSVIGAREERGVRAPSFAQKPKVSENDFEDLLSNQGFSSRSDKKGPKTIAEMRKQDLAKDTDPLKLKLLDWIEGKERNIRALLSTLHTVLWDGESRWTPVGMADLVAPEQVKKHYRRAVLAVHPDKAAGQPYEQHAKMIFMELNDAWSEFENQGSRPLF
# Sequence of PTK6 (human) (Q13882 whole entry, looked up): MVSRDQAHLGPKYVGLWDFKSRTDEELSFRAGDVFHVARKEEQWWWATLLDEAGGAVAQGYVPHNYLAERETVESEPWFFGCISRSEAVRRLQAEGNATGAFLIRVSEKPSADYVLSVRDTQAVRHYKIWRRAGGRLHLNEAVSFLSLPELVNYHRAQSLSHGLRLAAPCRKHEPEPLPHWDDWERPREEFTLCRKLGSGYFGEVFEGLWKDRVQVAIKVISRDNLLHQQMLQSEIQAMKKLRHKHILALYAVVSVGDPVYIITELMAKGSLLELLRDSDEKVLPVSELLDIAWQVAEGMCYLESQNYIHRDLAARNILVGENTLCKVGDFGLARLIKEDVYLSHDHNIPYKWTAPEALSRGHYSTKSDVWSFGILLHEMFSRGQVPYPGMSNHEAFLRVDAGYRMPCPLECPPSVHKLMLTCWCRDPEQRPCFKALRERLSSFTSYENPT
# Sequence of FRK (human) (P42685 whole entry, looked up): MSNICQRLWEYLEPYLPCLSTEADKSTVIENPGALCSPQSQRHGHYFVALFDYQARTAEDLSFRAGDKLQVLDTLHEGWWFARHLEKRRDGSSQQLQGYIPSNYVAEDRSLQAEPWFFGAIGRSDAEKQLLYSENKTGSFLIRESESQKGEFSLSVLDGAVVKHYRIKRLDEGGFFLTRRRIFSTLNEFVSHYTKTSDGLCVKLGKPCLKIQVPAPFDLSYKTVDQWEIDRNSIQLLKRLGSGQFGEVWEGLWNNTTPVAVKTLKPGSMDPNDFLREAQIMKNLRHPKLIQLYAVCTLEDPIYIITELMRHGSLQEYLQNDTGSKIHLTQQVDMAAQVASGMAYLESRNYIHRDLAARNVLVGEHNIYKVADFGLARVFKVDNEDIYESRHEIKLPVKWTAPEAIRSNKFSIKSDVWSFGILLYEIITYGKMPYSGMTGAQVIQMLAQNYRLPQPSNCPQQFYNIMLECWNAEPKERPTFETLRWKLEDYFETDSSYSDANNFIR
# Sequence of CSF1R (human) (P07333 whole entry, looked up): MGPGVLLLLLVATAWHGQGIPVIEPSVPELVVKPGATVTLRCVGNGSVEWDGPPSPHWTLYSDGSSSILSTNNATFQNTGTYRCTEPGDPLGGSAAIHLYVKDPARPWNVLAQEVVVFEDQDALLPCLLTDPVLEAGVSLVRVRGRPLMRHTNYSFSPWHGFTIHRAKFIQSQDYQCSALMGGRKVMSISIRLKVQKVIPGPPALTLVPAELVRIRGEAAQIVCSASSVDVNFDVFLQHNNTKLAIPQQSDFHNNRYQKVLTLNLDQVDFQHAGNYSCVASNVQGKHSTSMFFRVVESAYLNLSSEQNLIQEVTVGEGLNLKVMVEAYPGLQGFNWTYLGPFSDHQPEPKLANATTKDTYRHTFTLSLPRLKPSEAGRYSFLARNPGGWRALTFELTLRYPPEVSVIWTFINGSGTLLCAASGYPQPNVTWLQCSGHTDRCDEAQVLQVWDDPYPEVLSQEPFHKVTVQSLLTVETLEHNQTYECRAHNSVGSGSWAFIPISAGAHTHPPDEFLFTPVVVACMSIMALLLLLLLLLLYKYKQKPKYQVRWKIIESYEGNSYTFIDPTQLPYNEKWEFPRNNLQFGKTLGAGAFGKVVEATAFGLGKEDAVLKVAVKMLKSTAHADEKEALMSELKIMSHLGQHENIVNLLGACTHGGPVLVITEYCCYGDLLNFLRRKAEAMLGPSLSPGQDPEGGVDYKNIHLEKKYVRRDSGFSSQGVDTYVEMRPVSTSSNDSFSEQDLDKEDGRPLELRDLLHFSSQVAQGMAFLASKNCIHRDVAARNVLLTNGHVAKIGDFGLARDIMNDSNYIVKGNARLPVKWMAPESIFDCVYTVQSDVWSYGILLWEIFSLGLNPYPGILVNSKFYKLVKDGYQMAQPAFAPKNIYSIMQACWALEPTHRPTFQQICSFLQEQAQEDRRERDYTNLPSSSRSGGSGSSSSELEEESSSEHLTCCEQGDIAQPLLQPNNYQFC
# Sequence of MAPK7 (human) (Q13164 whole entry, looked up): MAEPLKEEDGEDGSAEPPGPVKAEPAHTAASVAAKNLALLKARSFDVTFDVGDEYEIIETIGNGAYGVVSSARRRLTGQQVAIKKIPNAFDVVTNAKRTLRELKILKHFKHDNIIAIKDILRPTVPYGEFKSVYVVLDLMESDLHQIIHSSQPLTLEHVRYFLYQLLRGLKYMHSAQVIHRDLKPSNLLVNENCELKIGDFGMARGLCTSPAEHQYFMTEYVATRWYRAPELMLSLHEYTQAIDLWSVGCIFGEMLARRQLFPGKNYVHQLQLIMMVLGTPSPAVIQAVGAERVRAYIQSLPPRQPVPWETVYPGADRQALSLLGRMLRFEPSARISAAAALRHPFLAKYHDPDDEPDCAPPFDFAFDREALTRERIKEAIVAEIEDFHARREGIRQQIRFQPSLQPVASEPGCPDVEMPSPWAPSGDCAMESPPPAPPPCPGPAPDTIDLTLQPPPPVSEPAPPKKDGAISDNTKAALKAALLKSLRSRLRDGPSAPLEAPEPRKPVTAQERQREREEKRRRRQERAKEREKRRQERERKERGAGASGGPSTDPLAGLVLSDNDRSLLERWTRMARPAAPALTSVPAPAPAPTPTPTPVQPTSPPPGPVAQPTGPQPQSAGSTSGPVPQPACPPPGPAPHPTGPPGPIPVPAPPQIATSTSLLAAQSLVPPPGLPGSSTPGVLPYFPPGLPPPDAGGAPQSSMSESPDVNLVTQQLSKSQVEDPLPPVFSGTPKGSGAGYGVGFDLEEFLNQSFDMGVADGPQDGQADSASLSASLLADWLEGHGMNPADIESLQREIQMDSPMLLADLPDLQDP
# Sequence of DCLK2 (human) (Q8N568 whole entry, looked up): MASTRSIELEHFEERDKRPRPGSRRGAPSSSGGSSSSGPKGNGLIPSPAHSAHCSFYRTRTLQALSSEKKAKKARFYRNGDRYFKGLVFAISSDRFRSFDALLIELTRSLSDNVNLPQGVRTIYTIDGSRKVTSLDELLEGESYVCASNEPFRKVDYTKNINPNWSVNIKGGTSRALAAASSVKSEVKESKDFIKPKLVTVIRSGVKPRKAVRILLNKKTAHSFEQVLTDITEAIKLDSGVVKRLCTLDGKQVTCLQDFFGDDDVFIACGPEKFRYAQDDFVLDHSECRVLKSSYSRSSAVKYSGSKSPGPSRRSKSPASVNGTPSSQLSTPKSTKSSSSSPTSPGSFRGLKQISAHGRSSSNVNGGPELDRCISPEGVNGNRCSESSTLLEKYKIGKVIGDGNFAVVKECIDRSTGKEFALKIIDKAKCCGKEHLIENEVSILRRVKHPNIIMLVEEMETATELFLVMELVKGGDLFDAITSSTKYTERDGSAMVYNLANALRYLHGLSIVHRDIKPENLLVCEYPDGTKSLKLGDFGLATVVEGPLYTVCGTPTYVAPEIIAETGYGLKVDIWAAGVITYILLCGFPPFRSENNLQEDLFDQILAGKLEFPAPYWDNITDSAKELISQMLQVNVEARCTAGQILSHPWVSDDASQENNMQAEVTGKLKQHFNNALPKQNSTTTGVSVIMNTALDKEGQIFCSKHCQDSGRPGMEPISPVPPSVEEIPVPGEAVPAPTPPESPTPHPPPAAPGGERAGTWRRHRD
smiles,measurement,setting,value
N=C1NC(=O)/C(=C/c2ccc(-c3cnc4ccccc4c3)o2)S1,"kinase still bound, per cent of control",[1],6.3%
same,"kinase still bound, per cent of control",[2],34%
same,"kinase still bound, per cent of control",[3],21%
same,"kinase still bound, per cent of control",[4],8%
same,"kinase still bound, per cent of control",[5],27%
same,"kinase still bound, per cent of control",[6],5.8%
same,"kinase still bound, per cent of control",[7],15%
same,"kinase still bound, per cent of control",[8],9.8%
same,"kinase still bound, per cent of control",[9],20%
same,"kinase still bound, per cent of control",[10],5.5%
same,"kinase still bound, per cent of control",[11],22%
same,"kinase still bound, per cent of control",[12],30%
same,"kinase still bound, per cent of control",[13],26%
same,"kinase still bound, per cent of control",[14],18%
same,"kinase still bound, per cent of control",[15],8.4%
same,"kinase still bound, per cent of control",[16],22%
same,"kinase still bound, per cent of control",[17],29%
same,"kinase still bound, per cent of control",[18],2.6%
same,"kinase still bound, per cent of control",[19],17%
same,"kinase still bound, per cent of control",[20],0.1%
same,"kinase still bound, per cent of control",[21],24%
same,"kinase still bound, per cent of control",[22],20%
same,"kinase still bound, per cent of control",[23],33%
same,"kinase still bound, per cent of control",[24],12%
same,"kinase still bound, per cent of control",[25],20%
same,"kinase still bound, per cent of control",[26],16%
same,"kinase still bound, per cent of control",[27],24%
same,"kinase still bound, per cent of control",[28],13%
same,"kinase still bound, per cent of control",[29],8.3%
same,"kinase still bound, per cent of control",[30],1.4%
same,"kinase still bound, per cent of control",[31],3.2%
same,"kinase still bound, per cent of control",[32],20%
same,"kinase still bound, per cent of control",[33],19%
same,"kinase still bound, per cent of control",[34],29%
same,"kinase still bound, per cent of control",[35],10%
same,"kinase still bound, per cent of control",[36],15%
same,"kinase still bound, per cent of control",[37],9.2%
same,"kinase still bound, per cent of control",[38],25%
same,"kinase still bound, per cent of control",[39],22%
same,"kinase still bound, per cent of control",[40],0.55%
same,"kinase still bound, per cent of control",[41],2.3%
same,"kinase still bound, per cent of control",[42],34%
same,"kinase still bound, per cent of control",[43],9.2%
same,"kinase still bound, per cent of control",[44],25%
same,"kinase still bound, per cent of control",[45],1.1%
same,IC50,[46],> 1110 nM
same,IC50,[47],504 nM
COc1cc(N2CCN(C)CC2)ccc1Nc1ncc2c(n1)N(C)c1ccccc1C(=O)N2,"kinase still bound, per cent of control",[48],3.9%
same,"kinase still bound, per cent of control",[49],8%
same,"kinase still bound, per cent of control",[5],28%
same,Kd,[50],330 nM
same,"kinase still bound, per cent of control",[50]; compound 10.0 µM,1%
same,Kd,[51],280 nM
same,"kinase still bound, per cent of control",[51]; compound 10.0 µM,0.9%
same,Kd,[52],690 nM
same,"kinase still bound, per cent of control",[52]; compound 10.0 µM,1.4%
same,"kinase still bound, per cent of control",[53],34%
same,Kd,[54],96 nM
same,"kinase still bound, per cent of control",[54]; compound 10.0 µM,0.8%
same,Kd,[18],270 nM
same,"kinase still bound, per cent of control",[18],3.8%
same,"kinase still bound, per cent of control",[55],12%
same,"kinase still bound, per cent of control",[56],22%
same,Kd,[57],670 nM
same,"kinase still bound, per cent of control",[57]; compound 10.0 µM,0.5%
same,"kinase still bound, per cent of control",[58],27%
same,"kinase still bound, per cent of control",[28],2.2%
same,"kinase still bound, per cent of control",[59],29%
same,"kinase still bound, per cent of control",[60],29%
same,"kinase still bound, per cent of control",[61],8.2%
same,"kinase still bound, per cent of control",[62],21%
same,"kinase still bound, per cent of control",[63],22%
same,"kinase still bound, per cent of control",[64],32%
same,Kd,[65],37 nM
same,"kinase still bound, per cent of control",[65]; compound 10.0 µM,0.15%
same,"kinase still bound, per cent of control",[38],24%
same,"kinase still bound, per cent of control",[66],17%
same,"kinase still bound, per cent of control",[67],21%
same,"kinase still bound, per cent of control",[68],14%
same,"kinase still bound, per cent of control",[69],31%
same,"kinase still bound, per cent of control",[70],18%
same,Kd,[71],110 nM
same,"kinase still bound, per cent of control",[71]; compound 10.0 µM,2.4%
same,"kinase still bound, per cent of control",[72],0.3%
